Source: ChEMBL document CHEMBL1201861, “Genomics of Drug Sensitity in Cancer screening data, Wellcome Trust Sanger Institute”

Columns and labels:
Assay in all cases: cells
D283 Med = format: functional, cell-based, Homo sapiens; settings: Homo sapiens, D283 Med
Description: SANGER: Inhibition of human D-283MED cell growth in a cell viability assay.

EFO-21 = format: functional, cell-based, Homo sapiens; settings: Homo sapiens, EFO-21;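 note: growth inhibition of EFO-21 cells measured with a viability assay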
Description: SANGER: Inhibition of human EFO-21 cell growth in a cell viability assay.

ES3 = format: functional, cell-based, Homo sapiens; settings: Homo sapiens, ES3;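 note: growth inhibition of ES3 cells, read out with a cell viability assay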
Description: SANGER: Inhibition of human ES3 cell growth in a cell viability assay.

ES4 = format: functional, cell-based, Homo sapiens; settings: Homo sapiens, ES4;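 note: growth inhibition of human ES4 cells, read out by a cell viability assay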
Description: SANGER: Inhibition of human ES4 cell growth in a cell viability assay.

EW-1 = format: functional, cell-based, Homo sapiens; settings: Homo sapiens, EW-1;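 note: growth inhibition of the human EW-1 cell line, read out by a cell viability assay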
Description: SANGER: Inhibition of human EW-1 cell growth in a cell viability assay.

FTC-133 = format: functional, cell-based, Homo sapiens; settings: Homo sapiens, FTC-133
G-401 = format: functional, cell-based, Homo sapiens; settings: Homo sapiens, G-401
Description: SANGER: Inhibition of human G-401 cell growth in a cell viability assay.

G-402 = format: functional, cell-based, Homo sapiens; settings: Homo sapiens, G-402
Description: SANGER: Inhibition of human G-402 cell growth in a cell viability assay.

HAL-01 = format: functional, cell-based; settings: Homo sapiens;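 note: growth inhibition of human HAL-01 cells, read out with a cell viability assay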
Description: SANGER: Inhibition of human HAL-01 cell growth in a cell viability assay.

HH = format: functional, cell-based; settings: Homo sapiens
Description: SANGER: Inhibition of human HH cell growth in a cell viability assay.

HLE = format: functional, cell-based, Homo sapiens; settings: Homo sapiens, HLE;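 note: growth inhibition of human HLE cells, read out by a cell viability assay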
Description: SANGER: Inhibition of human HLE cell growth in a cell viability assay.

HT-3 = format: functional, cell-based, Homo sapiens; settings: Homo sapiens, HT-3;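 note: growth inhibition measured with a cell viability readout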
Description: SANGER: Inhibition of human HT-3 cell growth in a cell viability assay.

Hs-578T = format: functional, cell-based, Homo sapiens; settings: Homo sapiens, Hs-578T
Description: SANGER: Inhibition of human Hs-578-T cell growth in a cell viability assay.

IGR-1 = format: functional, cell-based, Homo sapiens; settings: Homo sapiens, IGR-1;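 note: growth inhibition of human IGR-1 cells, read out with a cell viability assay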
Description: SANGER: Inhibition of human IGR-1 cell growth in a cell viability assay.

K562 = format: functional, cell-based; settings: Homo sapiens
Description: SANGER: Inhibition of human K-562 cell growth in a cell viability assay.

LC-2-ad = format: functional, cell-based, Homo sapiens; settings: Homo sapiens, LC-2-ad;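 note: growth inhibition of human LC-2-ad cells, read out with a cell viability assay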
Description: SANGER: Inhibition of human LC-2-ad cell growth in a cell viability assay.

ME-180 = format: functional, cell-based; settings: Homo sapiens;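 note: cell viability assay measuring growth inhibition of ME-180 cells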
Description: SANGER: Inhibition of human ME-180 cell growth in a cell viability assay.

MFE-280 = format: functional, cell-based, Homo sapiens; settings: Homo sapiens, MFE-280;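 note: growth inhibition of MFE-280 cells, determined with a cell viability readout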
Description: SANGER: Inhibition of human MFE-280 cell growth in a cell viability assay.

MG-63 = format: functional, cell-based, Homo sapiens; settings: Homo sapiens, MG-63;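 note: growth inhibition of human MG-63 cells, read out with a cell viability assay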
Description: SANGER: Inhibition of human MG-63 cell growth in a cell viability assay.

MKN-45 = format: functional, cell-based, Homo sapiens; settings: Homo sapiens, MKN-45;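 note: growth inhibition of human MKN-45 cells, measured with a cell viability assay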
Description: SANGER: Inhibition of human MKN45 cell growth in a cell viability assay.

NB10 = format: functional, cell-based, Homo sapiens; settings: Homo sapiens, NB10;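 note: growth inhibition of NB10 cells, read out by a cell viability assay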
Description: SANGER: Inhibition of human NB10 cell growth in a cell viability assay.

NB17 = format: functional, cell-based; settings: Homo sapiens;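 note: growth inhibition of NB17 cells, read out with a cell viability assay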
Description: SANGER: Inhibition of human NB17 cell growth in a cell viability assay.

NB5 = format: functional, cell-based, Homo sapiens; settings: Homo sapiens, NB5;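 note: growth inhibition of NB5 cells, read out as cell viability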
Description: SANGER: Inhibition of human NB5 cell growth in a cell viability assay.

NCI-H2405 = format: functional, cell-based, Homo sapiens; settings: Homo sapiens, NCI-H2405;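 note: growth inhibition of the human cell line, read out with a cell viability assay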
Description: SANGER: Inhibition of human NCI-H2405 cell growth in a cell viability assay.

NCI-H441 = format: functional, cell-based; settings: Homo sapiens;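 note: growth inhibition of NCI-H441 cells, read out with a cell viability assay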
Description: SANGER: Inhibition of human NCI-H441 cell growth in a cell viability assay.

NCI-H82 = format: functional, cell-based; settings: Homo sapiens;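 note: growth inhibition of NCI-H82 cells, measured with a cell viability readout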
Description: SANGER: Inhibition of human NCI-H82 cell growth in a cell viability assay.

NH-12 = format: functional, cell-based, Homo sapiens; settings: Homo sapiens, NH-12;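 note: growth inhibition of NH-12 cells, read out with a cell viability assay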
Description: SANGER: Inhibition of human NH-12 cell growth in a cell viability assay.

PANC-03-27 = format: functional, cell-based, Homo sapiens; settings: Homo sapiens, PANC-03-27
Description: SANGER: Inhibition of human PANC-03-27 cell growth in a cell viability assay.

QIMR-WIL = format: functional, cell-based; settings: Homo sapiens;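 note: growth inhibition of QIMR-WIL cells, read out with a cell viability assay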
Description: SANGER: Inhibition of human QIMR-WIL cell growth in a cell viability assay.

SBC-5 = format: functional, cell-based, Homo sapiens; settings: Homo sapiens, SBC-5;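 note: cell viability assay read-out, IC50 is the concentration that inhibits growth of the cells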
Description: SANGER: Inhibition of human SBC-5 cell growth in a cell viability assay.

SF-126 = format: functional, cell-based, Homo sapiens; settings: Homo sapiens, SF-126;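 note: growth inhibition of human SF126 cells, read out with a cell viability assay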
Description: SANGER: Inhibition of human SF126 cell growth in a cell viability assay.

SF-268 = format: functional, cell-based, Homo sapiens; settings: Homo sapiens, SF-268;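 note: growth inhibition of SF-268 cells determined with a cell viability assay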
Description: SANGER: Inhibition of human SF268 cell growth in a cell viability assay.

SKG-IIIa = format: functional, cell-based, Homo sapiens; settings: Homo sapiens, SKG-IIIa;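 note: cell growth inhibition, read out with a cell viability assay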
Description: SANGER: Inhibition of human SKG-IIIa cell growth in a cell viability assay.

SN12C = format: functional, cell-based, Homo sapiens; settings: Homo sapiens, SN12C;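 note: growth inhibition of human SN12C cells, measured by a cell viability assay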
Description: SANGER: Inhibition of human SN12C cell growth in a cell viability assay.

SW-620 = format: functional, cell-based, Homo sapiens; settings: Homo sapiens, SW-620;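 note: growth inhibition of human SW-620 cells, measured by a cell viability assay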
Description: SANGER: Inhibition of human SW620 cell growth in a cell viability assay.

SW 954 = format: functional, cell-based, Homo sapiens; settings: Homo sapiens, SW 954;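 note: growth inhibition of SW954 human cancer cells, read out as cell viability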
Description: SANGER: Inhibition of human SW954 cell growth in a cell viability assay.

SW 962 = format: functional, cell-based, Homo sapiens; settings: Homo sapiens, SW 962;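 note: growth inhibition of human SW962 cells, read out by a cell viability assay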
Description: SANGER: Inhibition of human SW962 cell growth in a cell viability assay.

CWR22R = format: functional, cell-based, Homo sapiens; settings: Homo sapiens, 22Rv1;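 note: growth inhibition of 22Rv1 cells, read out with a cell viability assay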
Description: SANGER: Inhibition of human 22RV1 cell growth in a cell viability assay.

786-0 = format: functional, cell-based, Homo sapiens; settings: Homo sapiens
Description: SANGER: Inhibition of human 786-0 cell growth in a cell viability assay.

A388 = format: functional, cell-based, Homo sapiens; settings: Homo sapiens, A388;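 note: growth inhibition of human A388 cells, read out with a cell viability assay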
Description: SANGER: Inhibition of human A388 cell growth in a cell viability assay.

A4-Fuk = format: functional, cell-based; settings: Homo sapiens;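 note: growth inhibition of A4-Fuk cells, read out by a cell viability assay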
Description: SANGER: Inhibition of human A4-Fuk cell growth in a cell viability assay.

A498 = format: functional, cell-based, Homo sapiens; settings: Homo sapiens, A498;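 note: growth inhibition of human A498 cells, read out with a cell viability assay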
Description: SANGER: Inhibition of human A498 cell growth in a cell viability assay.

BFTC-905 = format: functional, cell-based, Homo sapiens; settings: Homo sapiens, BFTC-905
Description: SANGER: Inhibition of human BFTC-905 cell growth in a cell viability assay.

BHT-101 = format: functional, cell-based, Homo sapiens; settings: Homo sapiens, BHT-101
Description: SANGER: Inhibition of human BHT-101 cell growth in a cell viability assay.

C2BBe1 = format: functional, cell-based, Homo sapiens; settings: Homo sapiens, C2BBe1;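 note: growth inhibition of C2BBe1 cells, read out through a viability assay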
Description: SANGER: Inhibition of human C2BBe1 cell growth in a cell viability assay.

CAL-120 = format: functional, cell-based, Homo sapiens; settings: Homo sapiens, CAL-120;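 note: cell growth inhibition, read out as cell viability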
Description: SANGER: Inhibition of human CAL-120 cell growth in a cell viability assay.

TE-6 = format: functional, cell-based, Homo sapiens; settings: Homo sapiens, TE-6;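 note: growth inhibition of TE-6 cells, read out with a cell viability assay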
Description: SANGER: Inhibition of human TE-6 cell growth in a cell viability assay.

TGBC1TKB = format: functional, cell-based, Homo sapiens; settings: Homo sapiens, TGBC1TKB;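 note: growth inhibition of TGBC1TKB cells, read out by a cell viability assay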
Description: SANGER: Inhibition of human TGBC1TKB cell growth in a cell viability assay.

TYK-nu = format: functional, cell-based, Homo sapiens; settings: Homo sapiens, TYK-nu;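 note: growth inhibition of human TYK-nu cells, read out by a cell viability assay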
Description: SANGER: Inhibition of human TYK-nu cell growth in a cell viability assay.

VMRC-RCZ = format: functional, cell-based; settings: Homo sapiens;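 note: growth inhibition measured with a cell viability assay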
Description: SANGER: Inhibition of human VMRC-RCZ cell growth in a cell viability assay.

CHP-212 = format: functional, cell-based, Homo sapiens; settings: Homo sapiens, CHP-212
Description: SANGER: Inhibition of human CHP-212 cell growth in a cell viability assay.

Compound: COc1ccc(C2=N[C@@H](c3ccc(Cl)cc3)[C@@H](c3ccc(Cl)cc3)N2C(=O)N2CCNC(=O)C2)c(OC(C)C)c1 [NUTLIN-3]
- IC50 (D283 Med): 3.58 µM
- IC50 (EFO-21): > 8 µM
- IC50 (ES3): > 8 µM
- IC50 (ES4): 2.43 µM
- IC50 (EW-1): > 8 µM
- IC50 (FTC-133): > 8 µM
- IC50 (G-401): 3.36 µM
- IC50 (G-402): 3.81 µM
- IC50 (HAL-01): > 8 µM
- IC50 (HH): > 8 µM
- IC50 (HLE): > 8 µM
- IC50 (HT-3): > 8 µM
- IC50 (Hs-578T): > 8 µM
- IC50 (IGR-1): > 8 µM
- IC50 (K562): > 8 µM
- IC50 (LC-2-ad): > 8 µM
- IC50 (ME-180): > 8 µM
- IC50 (MFE-280): > 8 µM
- IC50 (MG-63): > 8 µM
- IC50 (MKN-45): > 8 µM
- IC50 (NB10): 3.21 µM
- IC50 (NB17): 4.32 µM
- IC50 (NB5): 6.56 µM
- IC50 (NCI-H2405): > 8 µM
- IC50 (NCI-H441): > 8 µM
- IC50 (NCI-H82): > 8 µM
- IC50 (NH-12): 4.02 µM
- IC50 (PANC-03-27): > 8 µM
- IC50 (QIMR-WIL): 1.61 µM
- IC50 (SBC-5): > 8 µM
- IC50 (SF-126): > 8 µM
- IC50 (SF-268): > 8 µM
- IC50 (SKG-IIIa): > 8 µM
- IC50 (SN12C): > 8 µM
- IC50 (SW-620): > 8 µM
- IC50 (SW 954): 6.56 µM
- IC50 (SW 962): > 8 µM
- IC50 (CWR22R): > 8 µM
- IC50 (786-0): > 8 µM
- IC50 (A388): > 8 µM
- IC50 (A4-Fuk): > 8 µM
- IC50 (A498): > 8 µM
- IC50 (BFTC-905): > 8 µM
- IC50 (BHT-101): > 8 µM
- IC50 (C2BBe1): 3.17 µM
- IC50 (CAL-120): > 8 µM
- IC50 (TE-6): > 8 µM
- IC50 (TGBC1TKB): > 8 µM
- IC50 (TYK-nu): > 8 µM
- IC50 (VMRC-RCZ): > 8 µM
- IC50 (CHP-212): 1.81 µM

Compound: O=C(c1cc(Cc2n[nH]c(=O)c3ccccc23)ccc1F)N1CCN(C(=O)C2CC2)CC1 [OLAPARIB]
- IC50 (D283 Med): > 5 µM
- IC50 (EFO-21): > 5 µM
- IC50 (ES3): > 5 µM
- IC50 (ES4): > 5 µM
- IC50 (EW-1): > 5 µM
- IC50 (FTC-133): > 5 µM
- IC50 (G-401): > 5 µM
- IC50 (G-402): > 5 µM
- IC50 (HAL-01): > 5 µM
- IC50 (HH): > 5 µM
- IC50 (HLE): > 5 µM
- IC50 (HT-3): > 5 µM
- IC50 (Hs-578T): > 5 µM
- IC50 (IGR-1): > 5 µM
- IC50 (K562): > 5 µM
- IC50 (LC-2-ad): > 5 µM
- IC50 (ME-180): > 5 µM
- IC50 (MFE-280): > 5 µM
- IC50 (MG-63): > 5 µM
- IC50 (MKN-45): > 5 µM
- IC50 (NB10): > 5 µM
- IC50 (NB17): > 5 µM
- IC50 (NB5): > 5 µM
- IC50 (NCI-H2405): > 5 µM
- IC50 (NCI-H441): > 5 µM
- IC50 (NCI-H82): > 5 µM
- IC50 (NH-12): > 5 µM
- IC50 (PANC-03-27): > 5 µM
- IC50 (QIMR-WIL): > 5 µM
- IC50 (SBC-5): > 5 µM
- IC50 (SF-126): > 5 µM
- IC50 (SF-268): > 5 µM
- IC50 (SKG-IIIa): > 5 µM
- IC50 (SN12C): > 5 µM
- IC50 (SW-620): > 5 µM
- IC50 (SW 954): > 5 µM
- IC50 (SW 962): > 5 µM
- IC50 (CWR22R): > 5 µM
- IC50 (786-0): > 5 µM
- IC50 (A388): > 5 µM
- IC50 (A4-Fuk): > 5 µM
- IC50 (A498): > 5 µM
- IC50 (BFTC-905): > 5 µM
- IC50 (BHT-101): > 5 µM
- IC50 (C2BBe1): > 5 µM
- IC50 (CAL-120): > 5 µM
- IC50 (TE-6): > 5 µM
- IC50 (TGBC1TKB): > 5 µM
- IC50 (TYK-nu): > 5 µM
- IC50 (VMRC-RCZ): > 5 µM
- IC50 (CHP-212): > 5 µM

Compound: O=C1N=C(NCc2cccs2)S/C1=C\c1ccc2ncccc2c1
- IC50 (D283 Med): > 5 µM
- IC50 (EFO-21): > 5 µM
- IC50 (ES3): > 5 µM
- IC50 (ES4): > 5 µM
- IC50 (EW-1): > 5 µM
- IC50 (FTC-133): > 5 µM
- IC50 (G-401): > 5 µM
- IC50 (G-402): > 5 µM
- IC50 (HAL-01): > 5 µM
- IC50 (HH): > 5 µM
- IC50 (HLE): > 5 µM
- IC50 (HT-3): > 5 µM
- IC50 (Hs-578T): 2.28 µM
- IC50 (IGR-1): > 5 µM
- IC50 (K562): > 5 µM
- IC50 (LC-2-ad): > 5 µM
- IC50 (ME-180): > 5 µM
- IC50 (MFE-280): > 5 µM
- IC50 (MG-63): > 5 µM
- IC50 (MKN-45): > 5 µM
- IC50 (NB10): > 5 µM
- IC50 (NB17): > 5 µM
- IC50 (NB5): > 5 µM
- IC50 (NCI-H2405): 4.74 µM
- IC50 (NCI-H441): > 5 µM
- IC50 (NCI-H82): > 5 µM
- IC50 (NH-12): > 5 µM
- IC50 (PANC-03-27): > 5 µM
- IC50 (QIMR-WIL): > 5 µM
- IC50 (SBC-5): > 5 µM
- IC50 (SF-126): > 5 µM
- IC50 (SF-268): > 5 µM
- IC50 (SKG-IIIa): > 5 µM
- IC50 (SN12C): > 5 µM
- IC50 (SW-620): > 5 µM
- IC50 (SW 954): > 5 µM
- IC50 (SW 962): > 5 µM
- IC50 (CWR22R): > 5 µM
- IC50 (786-0): > 5 µM
- IC50 (A388): > 5 µM
- IC50 (A4-Fuk): 2.06 µM
- IC50 (A498): > 5 µM
- IC50 (BFTC-905): > 5 µM
- IC50 (BHT-101): > 5 µM
- IC50 (C2BBe1): > 5 µM
- IC50 (CAL-120): > 5 µM
- IC50 (TE-6): > 5 µM
- IC50 (TGBC1TKB): > 5 µM
- IC50 (TYK-nu): > 5 µM
- IC50 (VMRC-RCZ): > 5 µM
- IC50 (CHP-212): > 5 µM
